Measured values reported in patent publication US5171837A, “Peptide capable of binding interleukin 6 and an adsorbent comprising the peptide immobilized on a carrier” (Kuraray Co., Ltd., priority 1989, dated 1992).
Non-standard residues stand in square brackets, D forms with d. Residues, ends and D or L forms follow the SMILES beside them. No end group written: not given here. *: point of attachment. X1 = NCCCCCCCCCCCCCCCCCC(=O)*; 12Ado = NCCCCCCCCCCCC(=O)O

Biological target: T1, IL-6 (Homo sapiens, UniProt P05231)
T1 construct: purchased Genzyme Corp
Experiment: Activity for inhibition of binding of IL-6 to receptor by peptide (IL-6 receptor expression cells, FITC labeled anti-IL-6 antibody)
Settings: 5 μg of the peptide, 50 ng of IL-6, 10^5 IL-6 receptor expression cells, 4° C for one hour
Description: A human lymphocyte fraction was obtained from human peripheral blood with Ficoll-Paque (manufactured by Pharmacia-LKB). The fraction was reacted with a cultured supernatant of Epstein-Barr Virus producing cell strain B958 to transform the human lymphocytes to obtain IL-6 receptor expression cells.
1 mg of anti-human IL-6 antibody [Rabbit Anti-human Interleukin-6, manufactured by Genzyme Corp.] was dissolved in a 0.05M carbonate buffer solution (pH: 9.5) and to the resulting solution was added 10 μg of FITC [Fluorescein isothiocyanate, manufactured by Sigma Corp.]. The mixture was stirred at 4° C. overnight. The resulting solution was passed through PD-10 column (manufactured by Pharmacia-LKB) to obtain FITC labeled anti-IL-6 antibody as a firstly eluted fraction.
10^5 IL-6 receptor expression cells were suspended in 0.5 % BSA (bovine serum albumin, manufactured by Sigma Corp.)-PBS (a phosphate buffer solution containing 0.15 M sodium chloride, pH 7.4) and to the resulting suspension were added 50 ng of IL-6 (Human recombinant interleukin-6, manufactured by Genzyme Corp.) and 5 μg of the peptide obtained in any one of Examples 1 to 96. The suspension was allowed to stand at 4° C for one hour. Then, after washing the cells centrifugally with 0.5% BSA-PBS three times (1200 rpm, 5 min.), 1 μg of FITC labeled anti-IL-6 antibody was added and the mixture was allowed to stand at 4° C. for 30 minutes. After washing with 0.5% BSA-PBS three times, the intensity of fluorescence of the cells was determined. The binding inhibition activity of the peptide of each Example was evaluated, by taking the value obtained without addition of the peptide as a control and taking the value- obtained without addition of IL-6 as a blank, according to the following formula: [formula]

T1 sequence (P05231 30-212): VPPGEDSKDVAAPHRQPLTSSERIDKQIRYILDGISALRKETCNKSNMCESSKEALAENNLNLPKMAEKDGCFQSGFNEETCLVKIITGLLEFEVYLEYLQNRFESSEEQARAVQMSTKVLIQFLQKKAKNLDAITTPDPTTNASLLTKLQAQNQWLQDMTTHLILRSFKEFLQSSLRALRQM

Compound	Binding inhibition activity (%)
KKGTVHLLVDVPPEEPQLSCFRK [Example 10]	28%
KQALTTNKDDDNILFRDSAD-NH2 [Example 30]	46%
EEEQDPHSWNSSFYRLRFELRYRAERSKKG-NH2 [Example 87]	72%
KKWNSSFYRLRFELRYRAERSK [Example 34]	55%
TSLPGDSVTLTCPGVEPED [Example 5]	28%
KTSLPGDSVTLTCPGVEPEDD-NH2 [Example 6]	36%
DPHSWNSSFYRLRFELRYRAERSKK [Example 73]	71%
GTVHLLVDVPPEEPQLSCFRK [Example 13]	25%
QALTTNKDDDNILFRDSAK [Example 25]	45%
EEENPRWLSVTWQDPHSKG-NH2 [Example 55]	28%
CC(C)C[C@H](NC(=O)[C@H](CCC(=O)O)NC(=O)[C@H](Cc1ccccc1)NC(=O)[C@H](CCCNC(=N)N)NC(=O)[C@H](CC(C)C)NC(=O)[C@H](CCCNC(=N)N)NC(=O)[C@H](Cc1ccc(O)cc1)NC(=O)[C@H](Cc1ccccc1)NC(=O)[C@H](CO)NC(=O)[C@H](CO)NC(=O)[C@H](CC(N)=O)NC(=O)[C@H](Cc1c[nH]c2ccccc12)NC(=O)CCCCCCCCCCCN)C(=O)N[C@@H](CCCNC(=N)N)C(=O)N[C@@H](Cc1ccc(O)cc1)C(=O)N[C@@H](CCCNC(=N)N)C(=O)N[C@@H](C)C(=O)N[C@@H](CCC(=O)O)C(=O)N[C@@H](CCCNC(=N)N)C(=O)N[C@@H](CO)C(=O)N[C@@H](CCCCN)C(=O)N[C@@H](CCC(=O)O)C(=O)N[C@@H](CCC(=O)O)C(=O)N[C@@H](CCC(=O)O)C(=O)N[C@@H](CCC(=O)O)C(=O)N[C@@H](CCC(=O)O)C(=O)O [Example 35] (H-[12Ado]WNSSFYRLRFELRYRAERSKEEEEE-OH)	60%
HSWNSSFYRLRFELRYRAERSKK [Example 57]	63%
CC(C)C[C@H](NC(=O)[C@@H](NC(=O)[C@@H](NC(=O)[C@H](CO)NC(=O)[C@H](CC(=O)O)NC(=O)CNC(=O)[C@@H]1CCCN1C(=O)[C@H](CC(C)C)NC(=O)[C@H](CO)NC(=O)[C@@H](NC(=O)CCCCCCCCCCCCCCCCCN)[C@@H](C)O)C(C)C)[C@@H](C)O)C(=O)N[C@H](C(=O)N[C@@H](CS)C(=O)N1CCC[C@H]1C(=O)NCC(=O)N[C@H](C(=O)N[C@@H](CCC(=O)O)C(=O)N1CCC[C@H]1C(=O)N[C@@H](CCC(=O)O)C(=O)N[C@@H](CC(=O)O)C(=O)NCC(=O)O)C(C)C)[C@@H](C)O [Example 4] (X1-TSLPGDSVTLTCPGVEPEDG-OH)	42%
KKDPHSWNSSFYRLRFELRYRAERSK [Example 74]	70%
KKRKFQNSPAEDFQEPCQYSQES [Example 18]	55%
EEEDPHSWNSSFYRLRFELRYRAERSKKG-NH2 [Example 79]	62%
DDDDDTSLPGDSVTLTCPGVEPEDAAG-NH2 [Example 8]	37%
EEEGTVHLLVDVPPEEPQLSCFRKKG-NH2 [Example 15]	30%
EEEWQDPHSWNSSFYRLRFELRYRAERSKKG-NH2 [Example 95]	65%

Compound	Binding inhibition activity (%)
EEEWNSSFYRLRFELRYRAERSKKG-NH2 [Example 39]	58%
CC(C)C[C@H](NC(=O)[C@H](CCC(=O)O)NC(=O)[C@H](Cc1ccccc1)NC(=O)[C@H](CCCNC(=N)N)NC(=O)[C@H](CC(C)C)NC(=O)[C@H](CCCNC(=N)N)NC(=O)[C@H](Cc1ccc(O)cc1)NC(=O)[C@H](Cc1ccccc1)NC(=O)[C@H](CO)NC(=O)[C@H](CO)NC(=O)[C@H](CC(N)=O)NC(=O)[C@H](Cc1c[nH]c2ccccc12)NC(=O)[C@H](CO)NC(=O)[C@H](Cc1c[nH]cn1)NC(=O)[C@@H]1CCCN1C(=O)[C@H](CC(=O)O)NC(=O)CCCCCCCCCCCN)C(=O)N[C@@H](CCCNC(=N)N)C(=O)N[C@@H](Cc1ccc(O)cc1)C(=O)N[C@@H](CCCNC(=N)N)C(=O)N[C@@H](C)C(=O)N[C@@H](CCC(=O)O)C(=O)N[C@@H](CCCNC(=N)N)C(=O)N[C@@H](CO)C(=O)N[C@@H](CCCCN)C(=O)N[C@@H](CCC(=O)O)C(=O)N[C@@H](CCC(=O)O)C(=O)N[C@@H](CCC(=O)O)C(=O)N[C@@H](CCC(=O)O)C(=O)N[C@@H](CCC(=O)O)C(=O)O [Example 75] (H-[12Ado]DPHSWNSSFYRLRFELRYRAERSKEEEEE-OH)	63%
KPHSWNSSFYRLRFELRYRAERSKD-NH2 [Example 70]	59%
QDPHSWNSSFYRLRFELRYRAERSK [Example 85]	60%
EEETSLPGDSVTLTCPGVEPEDKG-NH2 [Example 7]	38%
CC[C@H](C)[C@H](NC(=O)[C@H](CC(N)=O)NC(=O)[C@H](CC(=O)O)NC(=O)[C@H](CC(=O)O)NC(=O)[C@H](CC(=O)O)NC(=O)[C@H](CCCCN)NC(=O)[C@H](CC(N)=O)NC(=O)[C@@H](NC(=O)[C@@H](NC(=O)[C@H](CC(C)C)NC(=O)[C@H](C)NC(=O)[C@H](CCC(N)=O)NC(=O)CCCCCCCCCCCN)[C@@H](C)O)[C@@H](C)O)C(=O)N[C@@H](CC(C)C)C(=O)N[C@@H](Cc1ccccc1)C(=O)N[C@@H](CCCNC(=N)N)C(=O)N[C@@H](CC(=O)O)C(=O)N[C@@H](CO)C(=O)N[C@@H](C)C(=O)N[C@@H](CCC(=O)O)C(=O)N[C@@H](CCC(=O)O)C(=O)N[C@@H](CCC(=O)O)C(=O)N[C@@H](CCC(=O)O)C(=O)N[C@@H](CCC(=O)O)C(=O)O [Example 27] (H-[12Ado]QALTTNKDDDNILFRDSAEEEEE-OH)	48%
DDDDDWQDPHSWNSSFYRLRFELRYRAERSKAAG-NH2 [Example 96]	52%
EEEHSWNSSFYRLRFELRYRAERSKKG-NH2 [Example 63]	51%
KQDPHSWNSSFYRLRFELRYRAERSKD-NH2 [Example 86]	58%
EEEPHSWNSSFYRLRFELRYRAERSKKG-NH2 [Example 71]	60%
NPRWLSVTWQDPHSK [Example 49]	30%
GTVHLLVDVPPEEPQLSCFRKK [Example 9]	30%
EEERKFQNSPAEDFQEPCQYSQESKG-NH2 [Example 23]	58%
KKWQDPHSWNSSFYRLRFELRYRAERSK [Example 90]	71%
CC(C)C[C@H](NC(=O)[C@H](CCC(=O)O)NC(=O)[C@H](Cc1ccccc1)NC(=O)[C@H](CCCNC(=N)N)NC(=O)[C@H](CC(C)C)NC(=O)[C@H](CCCNC(=N)N)NC(=O)[C@H](Cc1ccc(O)cc1)NC(=O)[C@H](Cc1ccccc1)NC(=O)[C@H](CO)NC(=O)[C@H](CO)NC(=O)[C@H](CC(N)=O)NC(=O)[C@H](Cc1c[nH]c2ccccc12)NC(=O)CCCCCCCCCCCCCCCCCN)C(=O)N[C@@H](CCCNC(=N)N)C(=O)N[C@@H](Cc1ccc(O)cc1)C(=O)N[C@@H](CCCNC(=N)N)C(=O)N[C@@H](C)C(=O)N[C@@H](CCC(=O)O)C(=O)N[C@@H](CCCNC(=N)N)C(=O)N[C@@H](CO)C(=O)N[C@@H](CCCCN)C(=O)NCC(=O)O [Example 36] (X1-WNSSFYRLRFELRYRAERSKG-OH)	62%
CC(C)C[C@H](NC(=O)[C@H](Cc1c[nH]c2ccccc12)NC(=O)[C@H](CCCNC(=N)N)NC(=O)[C@@H]1CCCN1C(=O)[C@H](CC(N)=O)NC(=O)CCCCCCCCCCCN)C(=O)N[C@@H](CO)C(=O)N[C@H](C(=O)N[C@H](C(=O)N[C@@H](Cc1c[nH]c2ccccc12)C(=O)N[C@@H](CCC(N)=O)C(=O)N[C@@H](CC(=O)O)C(=O)N1CCC[C@H]1C(=O)N[C@@H](Cc1c[nH]cn1)C(=O)N[C@@H](CO)C(=O)N[C@@H](CCC(=O)O)C(=O)N[C@@H](CCC(=O)O)C(=O)N[C@@H](CCC(=O)O)C(=O)N[C@@H](CCC(=O)O)C(=O)N[C@@H](CCC(=O)O)C(=O)O)[C@@H](C)O)C(C)C [Example 51] (H-[12Ado]NPRWLSVTWQDPHSEEEEE-OH)	32%
CC(C)C[C@H](NC(=O)[C@H](Cc1c[nH]c2ccccc12)NC(=O)[C@H](CCCNC(=N)N)NC(=O)[C@@H]1CCCN1C(=O)[C@H](CC(N)=O)NC(=O)CCCCCCCCCCCCCCCCCN)C(=O)N[C@@H](CO)C(=O)N[C@H](C(=O)N[C@H](C(=O)N[C@@H](Cc1c[nH]c2ccccc12)C(=O)N[C@@H](CCC(N)=O)C(=O)N[C@@H](CC(=O)O)C(=O)N1CCC[C@H]1C(=O)N[C@@H](Cc1c[nH]cn1)C(=O)N[C@@H](CO)C(=O)NCC(=O)O)[C@@H](C)O)C(C)C [Example 52] (X1-NPRWLSVTWQDPHSG-OH)	35%
KWQDPHSWNSSFYRLRFELRYRAERSKD-NH2 [Example 94]	63%
